27 molecules from US20230017532A1 (Hoffmann-La Roche Inc., priority 2018, published 2023) can be followed below.

Each structure is given as a SMILES string. Counter-ions that a name gives are not always drawn.

The first experiment relates to Acinetobacter baumannii ATCC17978. As to the kind of experiment: Antimicrobial susceptibility testing: 90% growth inhibitory concentration (IC90) determination, Iso-Sensitest broth, OD 600 nm. Format: cell-based. The following applies: 90% growth inhibitory concentration, Acinetobacter baumannii ATCC17978, Iso-Sensitest broth, OD 600 nm over 16 h; read-out: ATCC 17978 IC90. Here is the method:
Antimicrobial Susceptibility Testing:
90% Growth Inhibitory Concentration (IC90) Determination
The in vitro antimicrobial activity of the compounds was determined according to the following procedure:
The assay used a 10-points Iso-Sensitest broth medium to measure quantitatively the in vitro activity of the compounds against Acinetobacter baumannii ATCC17978 and Acinetobacter baumannii ATCC17961.
Stock compounds in DMSO were serially twofold diluted (e.g. range from 50 to 0.097 μM final concentration) in 384 wells microtiter plates and inoculated with 49 μl the bacterial suspension in Iso-Sensitest medium to have a final cell concentration of ˜5×10^(5) CFU/ml in a final volume/well of 50 ul/well. Microtiter plates were incubated at 35±2° C.
Bacterial cell growth was determined with the measurement of optical density at λ=600 nm each 20 minutes over a time course of 16 h. Growth inhibition was calculated during the logarithmic growth of the bacterial cells with determination of the concentration inhibiting 50% (IC50) and 90% (IC90) of the growth.
Table 1 provides the 90% growth inhibitory concentrations (IC90) in micromoles per liter of the compounds of present invention obtained against the strain Acinetobacter baumannii ATCC17978 and Acinetobacter baumannii ATCC17961.
Usually IC90 stands for the point of the concentration-response curve where the effect stands at 90%. On to `CCc1cc(Nc2nccn3c(-c4ccc(OCC#N)c(F)c4F)cnc23)ccc1C(=O)NCCOCCN` [Example 20, N-[2-(2-aminoethoxy)ethyl]-4-[[3-[4-(cyanomethoxy)-2,3-difluoro-phenyl]imidazo[1,2-a]pyrazin-8-yl]amino]-2-ethyl-benzamide;2,2,2-trifluoroacetic acid], for which the 90% effect concentration (IC90) was determined as 0.064 µM.

The same experiment, now with this note: Acinetobacter baumannii, ATCC17978, 16 h, 90% growth inhibitory concentration, Acinetobacter baumannii ATCC17978, Iso-Sensitest broth, OD 600 nm over 16 h; read-out: ATCC 17978 IC90.
Consider `COc1ccc(-c2cnc3c(Nc4ccc(C(=O)NCCOCCN5CCNCC5)c(Cl)c4)nccn23)c(F)c1F` [Example 1, 2-chloro-4-[[3-(2,3-difluoro-4-methoxyphenyl)imidazo[1,2-a]pyrazin-8-yl]amino]-N-[2-(2-piperazin-1-ylethoxy)ethyl]benzamide;2,2,2-trifluoroacetic acid], for which the IC90 was 0.12 µM.

In the case of `COc1ccc(-c2cnc3c(Nc4ccc(C(=O)NCCOCCN(C)C)c(Cl)c4)nccn23)c(F)c1F` [Example 2, 2-chloro-4-[[3-(2,3-difluoro-4-methoxy-phenyl)imidazo[1,2-a]pyrazin-8-yl]amino]-N-[2-[2-(dimethylamino)ethoxy]ethyl]benzamide;2,2,2-trifluoroacetic acid], the IC90 is 0.12 µM.

In the case of `COc1ccc(-c2cnc3c(Nc4ccc(C(=O)NCCOCCN5CCNC(=O)C5)c(C)c4)nccn23)c(F)c1F` [Example 3, 4-[[3-(2,3-difluoro-4-methoxy-phenyl)imidazo[1,2-a]pyrazin-8-yl]amino]-2-methyl-N-[2-[2-(3-oxopiperazin-1-yl)ethoxy]ethyl]benzamide;2,2,2-trifluoroacetic acid], the IC90 is 0.38 µM.

Regarding `COc1ccc(-c2cnc3c(Nc4ccc(C(=O)NCCOCCN)c(Cl)c4)nccn23)cc1` [Example 6, N-(2-(2-aminoethoxy)ethyl)-2-chloro-4-((3-(4-methoxyphenyl)imidazo[1,2-a]pyrazin-8-yl)amino)benzamide hydrochloride], the IC90 was 0.12 µM.

For the molecule `COc1ccc(-c2cnc3c(Nc4ccc(C(=O)NCCNCCO)c(C)c4)nccn23)cc1` [Example 7, N-(2-((2-hydroxyethyl)amino)ethyl)-4-((3-(4-methoxyphenyl)imidazo[1,2-a]pyrazin-8-yl)amino)-2-methylbenzamide], the concentration for an effect of 90% (IC90) came to 1.9 µM.

As for `COc1ccc(-c2cnc3c(Nc4ccc(C(=O)NCCOCCCl)c(C)c4)nccn23)cc1` [Example 8, N-(2-(2-chloroethoxy)ethyl)-4-((3-(4-methoxyphenyl)imidazo[1,2-a]pyrazin-8-yl)amino)-2-methylbenzamide], the IC90 came to 0.63 µM.

Take `CCc1cc(Nc2nccn3c(-c4ccc(Cl)c(F)c4F)cnc23)ccc1C(=O)NCCOCCN` [Example 9, N-(2-(2-aminoethoxy)ethyl)-4-((3-(4-chloro-2,3-difluorophenyl)imidazo[1,2-a]pyrazin-8-yl)amino)-2-ethylbenzamide hydrochloride]: the IC90 amounted to 0.16 µM.

As for `Cc1cc(Nc2nccn3c(-c4ccc(OC(F)F)cc4)cnc23)ccc1C(=O)NCCOCC(N)=O` [Example 10, N-(2-(2-amino-2-oxoethoxy)ethyl)-4-((3-(4-(difluoromethoxy)phenyl)imidazo[1,2-a]pyrazin-8-yl)amino)-2-methylbenzamide], the IC90 was found to be 0.17 µM.

Take `CNC(=O)COCCNC(=O)c1ccc(Nc2nccn3c(-c4ccc(OC(F)F)cc4)cnc23)cc1C` [Example 11, 4-((3-(4-(difluoromethoxy)phenyl)imidazo[1,2-a]pyrazin-8-yl)amino)-2-methyl-N-(2-(2-(methylamino)-2-oxoethoxy)ethyl)benzamide]: the IC90 amounted to 0.16 µM.

On to `Cc1cc(Nc2nccn3c(-c4ccc(OC(F)F)cc4)cnc23)ccc1C(=O)NCCOCCN1C(=O)COC1=O` [Example 12, 4-((3-(4-(difluoromethoxy)phenyl)imidazo[1,2-a]pyrazin-8-yl)amino)-N-(2-(2-(2,4-dioxooxazolidin-3-yl)ethoxy)ethyl)-2-methylbenzamide], for which the IC90 amounted to 0.75 µM.

In the case of `CNCCNC(=O)c1ccc(Nc2nccn3c(-c4ccc(OC)c(Cl)c4)cnc23)cc1` [Example 13, 4-[[3-(3-chloro-4-methoxyphenyl)imidazo[1,2-a]pyrazin-8-yl]amino]-N-[2-(methylamino)ethyl]benzamide;hydrochloride], the IC90 was 4.2 µM.

Turning to `COc1ccc(-c2cnc3c(Nc4ccc(C(=O)NCCOCCN)c(C)c4)nccn23)cc1` [Example 14, N-(2-(2-aminoethoxy)ethyl)-4-((3-(4-methoxyphenyl)imidazo[1,2-a]pyrazin-8-yl)amino)-2-methylbenzamide hydrochloride], the IC90 is 0.24 µM.

For the molecule `COc1ccc(-c2cnc3c(Nc4ccc(C(=O)NCCOCCN)cc4)nccn23)cc1` [Example 15, N-(2-(2-aminoethoxy)ethyl)-4-((3-(4-methoxyphenyl)imidazo[1,2-a]pyrazin-8-yl)amino)benzamide hydrochloride], the IC90 came to 3.8 µM.

`Cc1cc(Nc2nccn3c(-c4ccc(OC(F)F)cc4)cnc23)ccc1C(=O)NCCOCCOCCN` [Example 16, N-(2-(2-(2-aminoethoxy)ethoxy)ethyl)-4-((3-(4-(difluoromethoxy)phenyl)imidazo[1,2-a]pyrazin-8-yl)amino)-2-methylbenzamide]: the IC90 is 0.57 µM.

Take `Cc1cc(Nc2nccn3c(-c4ccc(OC(F)F)cc4)cnc23)ccc1C(=O)NCCOCCOCCOCCN` [Example 17, N-(2-(2-(2-(2-aminoethoxy)ethoxy)ethoxy)ethyl)-4-((3-(4-(difluoromethoxy)phenyl)imidazo[1,2-a]pyrazin-8-yl)amino)-2-methylbenzamide]: the IC90 amounted to 1.1 µM.

Take `COc1ccc(-c2cnc3c(Nc4ccc(C(=O)NCCOCCN)c(Cl)c4)nccn23)c(F)c1F` [Example 18, N-(2-(2-aminoethoxy)ethyl)-2-chloro-4-((3-(2,3-difluoro-4-methoxyphenyl)imidazo[1,2-a]pyrazin-8-yl)amino)benzamide]: the IC90 amounted to 0.057 µM.

Regarding `N#CCOc1ccc(-c2cnc3c(Nc4ccc(C(=O)NCCOCCn5ccnc5)c(Cl)c4)nccn23)c(F)c1F` [Example 19, N-(2-(2-(1H-imidazol-1-yl)ethoxy)ethyl)-2-chloro-4-((3-(4-(cyanomethoxy)-2,3-difluorophenyl)imidazo[1,2-a]pyrazin-8-yl)amino)benzamide], the IC90 turned out to be 0.083 µM.

In the case of `CCc1cc(Nc2nccn3c(-c4ccc(OCC#N)c(F)c4F)cnc23)ccc1C(=O)NCCOCCN(C)C` [Example 21, 4-[[3-[4-(cyanomethoxy)-2,3-difluoro-phenyl]imidazo[1,2-a]pyrazin-8-yl]amino]-N-[2-[2-(dimethylamino)ethoxy]ethyl]-2-ethyl-benzamide], the IC90 was determined as 0.16 µM.

In the case of `CCc1cc(Nc2nccn3c(-c4ccc(OCC#N)c(F)c4Cl)cnc23)ccc1C(=O)NCCOCCN(C)C` [Example 22, 4-[[3-[2-chloro-4-(cyanomethoxy)-3-fluoro-phenyl]imidazo[1,2-a]pyrazin-8-yl]amino]-N-[2-[2-(dimethylamino)ethoxy]ethyl]-2-ethyl-benzamide], the IC90 came out at 0.067 µM.

Take `COc1ccc(-c2cnc3c(Nc4ccc(C(=O)NCCN(C)CCN)c(C)c4)nccn23)cc1F` [Example 23, N-(2-((2-aminoethyl)(methyl)amino)ethyl)-4-((3-(3-fluoro-4-methoxyphenyl)imidazo[1,2-a]pyrazin-8-yl)amino)-2-methylbenzamide]: the IC90 was 0.2 µM.

Take `COc1ccc(-c2cnc3c(Nc4ccc(C(=O)NCCSCCN)c(C)c4)nccn23)cc1F` [Example 25, N-(2-((2-aminoethyl)thio)ethyl)-4-((3-(3-fluoro-4-methoxyphenyl)imidazo[1,2-a]pyrazin-8-yl)amino)-2-methylbenzamide]: the IC90 was found to be 0.15 µM.

Turning to `CCN(C(=O)NCCCN(C)C)C(=O)c1ccc(Nc2nccn3c(-c4ccc(OCC#N)c(F)c4F)cnc23)cc1Cl` [Example 27, 2-chloro-4-[[3-[4-(cyanomethoxy)-2,3-difluoro-phenyl]imidazo[1,2-a]pyrazin-8-yl]amino]-N-[3-(dimethylamino)propylcarbamoyl]-N-ethyl-benzamide], the IC90 came to 0.56 µM.

Turning to `C#CCOc1ccc(-c2cnc3c(Nc4ccc(C(=O)NCCOCCN)c(C)c4)nccn23)cc1` [Example 28, N-[2-(2-Aminoethoxy)ethyl]-2-methyl-4-[[3-(4-prop-2-ynoxyphenyl)imidazo[1,2-a]pyrazin-8-yl]amino]benzamide; formic acid], the IC90 was determined as 0.12 µM.

The experiment is the same for the next values; noted with them: Acinetobacter baumannii, ATCC17978, 16 h, read-out: ATCC 17978 IC90.
In the case of `COc1ccc(-c2cnc3c(Nc4ccc(C(=O)NCCOCCN)c(Cl)c4)nccn23)cc1F` [Example 4, N-(2-(2-aminoethoxy)ethyl)-2-chloro-4-((3-(3-fluoro-4-methoxyphenyl)imidazo[1,2-a]pyrazin-8-yl)amino)benzamide hydrochloride], the IC90 turned out to be 0.098 µM.

On to `COc1ccc(-c2cnc3c(Nc4ccc(C(=O)NCCOCCN)c(C)c4)nccn23)c(F)c1F` [Example 5, N-(2-(2-aminoethoxy)ethyl)-4-((3-(2,3-difluoro-4-methoxyphenyl)imidazo[1,2-a]pyrazin-8-yl)amino)-2-methylbenzamide hydrochloride], for which the IC90 is 0.065 µM.

For the molecule `COc1ccc(-c2cnc3c(Nc4ccc(C(=O)N(C)CCOCCN)c(C)c4)nccn23)cc1` [Example 24, N-(2-(2-aminoethoxy)ethyl)-4-((3-(4-methoxyphenyl)imidazo[1,2-a]pyrazin-8-yl)amino)-N,2-dimethylbenzamide hydrochloride], the IC90 turned out to be 0.43 µM.
